The values below are quoted from earlier work in US20160066563A1, “COMPOSITIONS AND METHODS FOR COLLECTING, WASHING, CRYOPRESERVING, RECOVERING AND RETURN OF LIPOASPIRATES TO PHYSICIAN FOR AUTOLOGOUS ADIPOSE TRANSFER PROCEDURES” (priority 2012, published 2016).

The subject of the series is cells. Particulars: at room temperature or body temperature.

SMILES strings stand for the structures.

For `OCC(O)CO` [glycerol], the toxicity to cells entry is reported as “not toxic”.
`C[S+](C)[O-]` [DMSO, dimethylsulfoxide]: the toxicity to cells entry is reported as “toxic to cells”.
